Test results: patent US10806730B2, “Methods of treating cancer with farnesyltransferase inhibitors” (Kura Oncology, Inc., priority 2017, dated 2020)

Columns and labels:
Format in all cases: in vivo, human
[1] = tested on: elderly patients with newly diagnosed, de novo, or secondary AML; experiment: Ph3 study AML301, tipifarnib vs BSC
Method: (§1) Clinical studies with tipifarnib were performed in newly diagnosed elderly patients with poor risk AML (CTEP-20, Phase 2) and relapsed and refractory AML (INT-17, Phase 2). Patient selection in these studies was not based on genetic markers. Anecdotal evidence of tipifarnib single agent activity was reported. […] Median OS in the overall study was 107 days for the Tipifarnib group and 109 days for the BSC group in AML301.

[2] = tested on: higher risk MDS/CMML subjects; experiment: Clinical study of tipifarnib (INT-28) in higher risk MDS/CMML
Method: A clinical study of tipifarnib (300 mg bid (twice daily), 3 weeks on/1 week off) was conducted in 82 higher risk MDS/CMML subjects. 67 subjects were transfusion dependent (TD) at study entry, whereby a subject receiving one or several red blood cell (RBC) transfusions during screening and up to the first administration of tipifarnib was classified as TD.
30/67 (45%) MDS subjects were initially classified as having moderate to severe neutropenia, based on their absolute neutrophil count (ANC) of <1,000 cells/μl blood prior to receiving tipifarnib. The ANC of the remaining 37/67 (55%) MDS subjects was ≥1,000 cells/μl blood. 9/30 (30%) MDS subjects with moderate to severe neutropenia and 2/37 (5%) MDS subjects without moderate to severe neutropenia converted to transfusion independence during the tipifarnib study. […] The majority of the subjects that developed transfusion independence were of intermediate (INT) risk of developing AML.

[3] = tested on: relapsed and refractory AML; experiment: INT-17 Phase 2 tipifarnib study
Method: as §1

[4] = tested on: newly diagnosed elderly patients with poor risk AML; experiment: CTEP-20 Phase 2 tipifarnib study
Method: as §1

[5] = 34 study subjects with outcome and expression data
[6] = CXCR4/CXCR2 expression ratio quartiles 1st-3rd
[7] = bone marrow CXCR4/CXCR2 expression ratio in the upper quartile

Q: For `Cn1cncc1[C@@](N)(c1ccc(Cl)cc1)c1ccc2c(c1)c(-c1cccc(Cl)c1)cc(=O)n2C` [tipifarnib], which “hazard ratio, tipifarnib vs reference therapy” value ([1]; ANC/WBC<0.3 and marrow blasts>60%, N=110, P=0.08) is on record?
A: 0.67

Q: And the Median survival ([1]; ANC/WBC<0.4, WBC>2, platelets>20, N=135)?
A: 146 days

Q: And the “hazard ratio, tipifarnib vs BSC” value ([1]; ANC/WBC<0.4, WBC>2, platelets>20, N=135, P=0.046)?
A: 0.7

Q: What about the “median progression free survival (PFS)” value ([1]; BMR<0.1 prior to treatment, N=73) of the same compound?
A: 83 days

Q: And the “median PFS” value ([1]; BMR≥0.1 prior to treatment, N=140)?
A: 60 days

Q: And the “Median OS” value ([1]; overall study)?
A: 107 days

Q: What about the “Hazards ratio, Tipifarnib compared with BSC” value ([1]; overall study, N=457, non significant) of the same compound?
A: 1.02

Q: And the Median survival ([1]; subset with high BM blasts (>40%) and low peripheral blasts (<10%), N=82)?
A: 201 days

Q: And the “HR, tipifarnib vs BSC” value ([1]; subset with high BM blasts (>40%) and low peripheral blasts (<10%), N=82, P=0.019)?
A: 0.58

Q: What about the “conversion to transfusion independence (TI)” value ([2]; 67 transfusion dependent (TD) subjects, 300 mg bid, 3 weeks on/1 week off) of the same compound?
A: 16%

Q: What about the “conversion to transfusion independence” value ([2]; MDS subjects with neutropenia and high peripheral blast cell count >1%) of the same compound?
A: 11%

Q: What about the “conversion to transfusion independence” value ([2]; MDS subjects with neutropenia and low peripheral blast cell count ≤1%) of the same compound?
A: 38%

Q: And the “conversion to transfusion independence” value ([2]; TD MDS subjects with moderate to severe neutropenia (ANC <1,000 cells/μl))?
A: 30%

Q: What about the “conversion to transfusion independence” value ([2]; TD MDS subjects without moderate to severe neutropenia (ANC ≥1,000 cells/μl)) of the same compound?
A: 5%

Q: What about the “persistence of RBC and platelet transfusion independence” value ([2]; exemplary MDS subject, ANC at screening=400 cells/μl, 300 mg bid, 3 weeks on/1 week off) of the same compound?
A: 308 days

Q: What about the overall survival ([3]; 57 subjects with CXCR4/CXCR2 ratio data) of the same compound?
A: 87 days

Q: And the “median PFS” value ([3]; AML subjects overexpressing CXCR4, N=8)?
A: 143 days

Q: What about the “median PFS” value ([3]; AML subjects with relatively lower levels of CXCR4 expression, N=49) of the same compound?
A: 29 days

Q: What about the Median survival ([3]; CXCR4/CXCR2 quintile group 1) of the same compound?
A: 56 days

Q: And the Median survival ([3]; CXCR4/CXCR2 quintile group 2)?
A: 78 days

Q: And the Median survival ([3]; CXCR4/CXCR2 quintile group 3)?
A: 44 days

Q: What about the Median survival ([3]; CXCR4/CXCR2 quintile group 4) of the same compound?
A: 105 days

Q: And the Median survival ([3]; CXCR4/CXCR2 quintile group 5)?
A: 182 days

Q: And the “HR, 5th quintile of CXCR4/CXCR2 ratio vs rest” value ([3]; p=0.04)?
A: 0.52

Q: What about the Median survival ([3]; rest of the subjects (not 5th quintile of CXCR4/CXCR2 ratio)) of the same compound?
A: 74 days

Q: What about the “Median overall PFS” value [4, 5] of the same compound?
A: 84 days

Q: And the Median overall survival [4, 5]?
A: 233 days

Q: What about the “median progression free survival (PFS)” value ([4]; BMR<0.1 prior to treatment, N=57) of the same compound?
A: 93 days

Q: And the “median PFS” value ([4]; BMR≥0.1 prior to treatment, N=84)?
A: 47 days

Q: What about the “Median survival (FIG. 7A, PFS probabilities)” value [4, 6] of the same compound?
A: 67 days

Q: What about the “Median survival (FIG. 7B)” value [4, 6] of the same compound?
A: 179 days

Q: And the “HR (FIG. 7B, survival), upper quartile vs quartiles 1st-3rd” value ([4]; CXCR4/CXCR2 expression ratio, p=0.07)?
A: 0.26

Q: And the “HR (FIG. 7A, PFS), upper quartile vs quartiles 1st-3rd” value ([4]; CXCR4/CXCR2 expression ratio, p=0.09)?
A: 0.44

Q: And the “Median survival (FIG. 7A, PFS probabilities)” value [4, 7]?
A: 406 days

Q: And the “Median survival (FIG. 7B)” value [4, 7]?
A: 728 days
